Measurements reported in patent US6602690B2, “Process for production of dihomo-γ-linolenic acid and lipid containing same” (Suntory, Ltd., priority 1991, dated 2003).

Key:
[1] = tested on: mutant Mortierella alpina SAM 1860; test: Culturing of mutant Mortierella alpina SAM 1860 in medium with added substrate (Example 3), fatty acid methyl esters analysed by gas chromatography; assay type: cell-based; conditions: 0.5% additive in medium with 2% glucose, 1% yeast extract, 0.2% Tween 20; 28° C., 7 days
Method: These cells were extracted with a solvent of one phase chloroform/methanol/water according to Bligh & Dyer extraction method to obtain total lipids in an amount of 505 mg from the strain IFO 8568, and an amount of 530 mg from the mutant SAM 1860. These lipids were subjected to methyl-esterification using anhydrous methanol/hydrochloric acid (95:5) at 50° C. for 3 hours, and the resulting fatty acid methyl esters were extracted to obtain 417 mg of a total fatty acid methyl ester preparation from the strain IFO 8568, and 454 mg of a total fatty acid preparation from the mutant SAM 1860. The fatty acid methyl ester preparations were analyzed by gas chromatography.
20 ml of a medium (pH 6.0) containing 2% glucose; 1% yeast extract; 0.2% Tween 20; and 0.5% hydrocarbon, sodium salt of fatty acid, fatty acid ester, or fat or oil, was put into a 100 ml Erlenmeyer flask, and autoclaved at 120° C. for 20 minutes.
A mutant Mortierella alpina SAM 1860 was added to each flask, and cultured on a reciprocating shaker (110 rpm) at 28° C. for 7 days. For the resulting cell preparations, fatty acid methyl esters were analyzed by gas chromatography as described in Example 1.

[2] = tested on: Mortierella alpina IFO 8568; test: Culturing of Mortierella alpina IFO 8568 with sesamin-containing soybean oil (Example 5, Comparative Example); assay type: cell-based; conditions: strain IFO 8568; soybean oil with 15% by weight sesamin, 0.5 ml at start and after 24 hours per 100 ml; 28° C., 7 days
Method: (§1) 100 ml each of a medium (pH 6.0) containing 4% glucose and 1% yeast extract was put into 4 Erlenmeyer flasks having a volume of 500 ml, and 0.5 ml each of soybean oil in which sesamin (2,6-bis-(3,4-methylenedioxyphenyl)-cis-3,7-dioxabicyclo[3,3,0]octane) had been dissolved to a sesamin concentration of 15% by weight was added to 2 flasks, and 0.5 ml each of soybean oil was added 2 other flasks, and the flasks were sterilized at 120° C. for 20 minutes.
(§2) Mortierella alpina IFO 8568 (Comparative Example) was added to two different media, and the mutant SAM 1860 (Example) was add to other different media.
(§3) The strains were cultured on a reciprocating shaker (110 rpm) at 28° C. for 7 days. After 24 hours from the start of culturing, 0.5 ml each of the sesamin-containing soybean oil was added to the media to which the sesamin-containing soybean oil had been added, and 0.5 ml each of soybean oil was added to the media to which soybean oil had been added. After culturing, a fatty acid methyl ester preparation was analyzed by gas chromatography as described in Example 1.

[3] = tested on: mutant SAM 1860; test: Culturing of mutant SAM 1860 with sesamin-containing soybean oil (Example 5); assay type: cell-based, Mortierella alpina
Method: as §1, §2, §3

[4] = Example 5 cultures (Table 4), strain not specified

## CCCCCCCCCCCCCCCC [Hexadecane]
[1]
  ARA: 0.55 g/L
  DGLA: 1.89 g/L
  Dry cells: 18.1 g/L

## CCCCC/C=C\C/C=C\CCCCCCCC(=O)OC [Methyl linoleate]
[1]
  ARA: 0.60 g/L
  DGLA: 2.15 g/L
  Dry cells: 18.7 g/L

## CCCCCCCC/C=C\CCCCCCCC(=O)OC [Methyl oleate]
[1]
  ARA: 0.56 g/L
  DGLA: 1.99 g/L
  Dry cells: 18.1 g/L

## CCCCCCCCCCCCCCCCCC [Octadecane]
[1]
  ARA: 0.50 g/L
  DGLA: 1.80 g/L
  Dry cells: 18.3 g/L

## CCCCC/C=C\C/C=C\CCCCCCCC(=O)[O-].[Na+] [Sodium linoleate]
[1]
  ARA: 0.49 g/L
  DGLA: 1.40 g/L
  Dry cells: 14.8 g/L

## CCCCCCCC/C=C\CCCCCCCC(=O)[O-].[Na+] [Sodium oleate]
[1]
  ARA: 0.48 g/L
  DGLA: 1.40 g/L
  Dry cells: 15.5 g/L

## c1cc2c(cc1[C@H]1OC[C@H]3[C@@H]1CO[C@@H]3c1ccc3c(c1)OCO3)OCO2 [sesamin, 2,6-bis-(3,4-methylenedioxyphenyl)-cis-3,7-dioxabicyclo[3,3,0]octane]
[2]
  Ratio of DGLA:ARA: ≤ 1.17
[3]; [4]
  effect of addition on the amount of dry cells: did not effect
  effect of addition on the amount of total fatty acids produced: did not effect
[3]; mutant SAM 1860, soybean oil with 15% by weight sesamin, 0.5 ml at start and after 24 hours per 100 ml, 28° C., 7 days
  Ratio of DGLA:ARA: 12.3
